ChEMBL document CHEMBL4387740, “Discovery of ABT-957: 1-Benzyl-5-oxopyrrolidine-2-carboxamides as selective calpain inhibitors with enhanced metabolic stability” (Bioorg Med Chem Lett, 2019)

Columns and labels:
[1] = biological target: T1, Calpain-1 catalytic subunit (Homo sapiens, UniProt P07384); test: Inhibition of Cal1 (unknown origin)
T1 sequence (P07384 whole entry): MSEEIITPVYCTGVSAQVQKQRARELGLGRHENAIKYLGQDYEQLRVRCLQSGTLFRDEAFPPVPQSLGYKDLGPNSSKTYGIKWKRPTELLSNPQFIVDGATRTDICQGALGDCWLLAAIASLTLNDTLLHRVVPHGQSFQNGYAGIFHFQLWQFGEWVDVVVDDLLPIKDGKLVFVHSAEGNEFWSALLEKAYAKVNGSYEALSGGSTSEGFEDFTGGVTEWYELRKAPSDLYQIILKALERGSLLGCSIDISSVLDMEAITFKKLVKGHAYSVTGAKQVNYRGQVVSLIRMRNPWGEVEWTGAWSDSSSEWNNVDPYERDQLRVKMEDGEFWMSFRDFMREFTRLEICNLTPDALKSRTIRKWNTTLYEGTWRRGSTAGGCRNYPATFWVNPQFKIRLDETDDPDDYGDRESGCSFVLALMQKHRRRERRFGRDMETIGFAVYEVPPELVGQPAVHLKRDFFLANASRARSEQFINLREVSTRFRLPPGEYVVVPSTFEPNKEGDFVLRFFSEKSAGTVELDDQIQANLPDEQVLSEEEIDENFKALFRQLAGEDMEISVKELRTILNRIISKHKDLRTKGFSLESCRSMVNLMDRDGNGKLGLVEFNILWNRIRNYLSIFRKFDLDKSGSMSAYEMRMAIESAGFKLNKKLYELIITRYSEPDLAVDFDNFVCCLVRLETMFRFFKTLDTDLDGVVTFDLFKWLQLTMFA

Homo sapiens [2] = species: Homo sapiens; test: Selectivity ratio, ratio of Ki for CatB (unknown origin) to Ki for Cal1 (unknown origin)
Homo sapiens [3] = species: Homo sapiens; test: Selectivity ratio, ratio of Ki for CatK (unknown origin) to Ki for Cal1 (unknown origin)
Homo sapiens [4] = species: Homo sapiens; test: Selectivity ratio, ratio of Ki for CatL (unknown origin) to Ki for Cal1 (unknown origin)
[5] = Selectivity ratio, ratio of Ki for CatS (unknown origin) to Ki for Cal1 (unknown origin); details: Homo sapiens
[6] = Intrinsic clearance in human liver cytosol; format: ADME, subcellular; details: read-out: CLH
[7] = Intrinsic clearance in human liver microsomes; format: ADME, Microsome; details: read-out: CLH
[8] = Intrinsic clearance in rat liver microsomes; format: ADME, Microsome; details: read-out: CLH
[9] = Intrinsic clearance in rat liver microsomes; details: read-out: CLH

| SMILES | Ki [1] [nM] | Selectivity ratio (Homo sapiens [2]) | Selectivity ratio (Homo sapiens [3]) | Selectivity ratio (Homo sapiens [4]) | Selectivity ratio [5] | microsomal CLint [6] [µL/min/mg] | microsomal CLint [7] [µL/min/mg] | microsomal CLint [8] [µL/min/mg] | microsomal CLint [9] [µL/min/mg] |
| --- | --- | --- | --- | --- | --- | --- | --- | --- | --- |
| O=C(NCc1ccc(F)cc1)C(=O)C(Cc1ccccc1)NC(=O)[C@H]1CCC(=O)N1Cc1ccccc1 (some centres not stated) | 48 | 104 | 70 | 34 | 286 | 3 | > 70 | > 100 | – |
| O=C(NC1CC1)C(=O)C(Cc1ccccc1)NC(=O)[C@H]1CCC(=O)N1Cc1ccccc1C(F)(F)F (some centres not stated) | 90 | 33 | 109 | 162 | > 100 | > 70 | > 1 | – | > 100 |
| O=C1CC[C@H](C(=O)NC(Cc2ccccc2)C(=O)C(=O)NC2CC2)N1 (some centres not stated) | 9700 | – | – | – | – | < 23 | < 1 | – | < 23 |
| O=C(Nc1ccccc1)C(=O)C(Cc1ccccc1)NC(=O)[C@H]1CCC(=O)N1Cc1ccccc1 (some centres not stated) | 70 | 296 | 88 | 37 | > 400 | 5 | > 70 | > 100 | – |
| O=C(NC1CC1)C(=O)C(Cc1ccccc1)NC(=O)[C@H]1CCC(=O)N1Cc1ccccc1OC(F)(F)F (some centres not stated) | 50 | 22 | > 200 | 17 | > 200 | > 70 | < 1 | – | > 100 |
| NC(=O)C(=O)C(Cc1ccccc1)NC(=O)c1cccnc1-n1ccc(-c2ccc(F)cc2)n1 (configuration not stated) | – | 10 | 18 | 127 | > 300 | – | – | – | – |
| O=C(NC1CC1)C(=O)C(Cc1ccccc1)NC(=O)[C@H]1CCC(=O)N1C1Cc2ccccc2C1 (some centres not stated) | 545 | – | – | – | – | 42 | 2 | – | 58 |
| CCCCC(NC(=O)[C@H]1CCC(=O)N1Cc1ccccc1)C(=O)C(N)=O (mixture of isomers) | 46 | 4 | 6 | 21 | 41 | – | – | – | – |
| NC(=O)C(=O)C(Cc1ccccc1)NC(=O)[C@H]1CCC(=O)N1Cc1cccc(OC(F)(F)F)c1 (mixture of isomers) | 125 | 7 | 61 | 4 | 76 | – | – | – | – |
| Cc1ccc(S(=O)(=O)N2CCC[C@@H]2C(=O)NC(Cc2ccccc2)C(=O)C(N)=O)cc1 (mixture of isomers) | 129 | 72 | 14 | 4 | 14 | – | – | – | – |
| NC(=O)C(=O)C(Cc1ccccc1)NC(=O)[C@H]1CCC(=O)N1CC1CCCCC1 (mixture of isomers) | 200 | 8 | < 1 | 2 | 5 | – | – | – | – |
| O=C(NC1CC1)C(=O)C(Cc1ccccc1)NC(=O)[C@H]1CCC(=O)N1Cc1ccccc1Cl (some centres not stated) | 73 | 18 | 93 | 57 | > 130 | > 70 | < 1 | – | > 100 |
| Cn1cc(CN2C(=O)CC[C@@H]2C(=O)NC(Cc2ccccc2)C(=O)C(=O)NC2CN2)cn1 (some centres not stated) | 530 | – | – | – | – | 27 | – | – | 39 |
| NC(=O)C(=O)C(Cc1ccccc1)NC(=O)c1cccc(=O)n1Cc1ccccc1 (configuration not stated) | 82 | 15 | 2 | 4 | 13 | – | – | – | – |
| NC(=O)C(=O)C(Cc1ccccc1)NC(=O)[C@H]1CCC(=O)N1Cc1ccccc1OC(F)(F)F (mixture of isomers) | 57 | 5 | 33 | 41 | 127 | – | – | – | – |
| CC(C)(C)CN1C(=O)CC[C@@H]1C(=O)NC(Cc1ccccc1)C(=O)C(N)=O (mixture of isomers) | 1350 | 23 | 7 | 7 | 7 | – | – | – | – |
| COc1cccc(C(F)(F)F)c1CN1C(=O)CC[C@@H]1C(=O)NC(Cc1ccccc1)C(=O)C(N)=O (mixture of isomers) | 36 | 51 | 120 | 387 | 395 | – | – | – | – |

Other lines, results leading:

| Ki [1] [nM] | Selectivity ratio (Homo sapiens [2]) | Selectivity ratio (Homo sapiens [3]) | Selectivity ratio (Homo sapiens [4]) | Selectivity ratio [5] | microsomal CLint [6] [µL/min/mg] | microsomal CLint [7] [µL/min/mg] | microsomal CLint [8] [µL/min/mg] | microsomal CLint [9] [µL/min/mg] | SMILES |
| --- | --- | --- | --- | --- | --- | --- | --- | --- | --- |
| 268 | 56 | 2 | 12 | 7 | – | – | – | – | NC(=O)C(=O)C(Cc1ccccc1)NC(=O)C1CCS(=O)(=O)N1Cc1ccccc1 (mixture of isomers) |
| 165 | 55 | 85 | 44 | 60 | 4 | < 23 | < 23 | – | CCNC(=O)C(=O)C(Cc1ccccc1)NC(=O)[C@H]1CCC(=O)N1Cc1ccccc1 (mixture of isomers) |
| 26 | 15 | 84 | 11 | 85 | – | – | – | – | NC(=O)C(=O)C(Cc1ccccc1)NC(=O)[C@H]1CCC(=O)N1Cc1cccc(C(F)(F)F)c1 (mixture of isomers) |
| 4360 | – | – | – | – | – | – | – | – | CONC(=O)C(=O)C(Cc1ccccc1)NC(=O)[C@H]1CCC(=O)N1Cc1ccccc1 (some centres not stated) |
| 101 | 72 | 4 | 3 | 2 | – | – | – | – | CN1C[C@H](C(=O)NC(Cc2ccccc2)C(=O)C(N)=O)N(Cc2ccccc2)C1=O (mixture of isomers) |
| 180 | 16 | 13 | 9 | 35 | – | – | – | – | NC(=O)C(=O)C(Cc1ccccc1)NC(=O)[C@H]1CCC(=O)N1Cc1ccncc1 (mixture of isomers) |
| 110 | 66 | 27 | 20 | 130 | 1 | 37 | > 100 | – | O=C(NC1CCC1)C(=O)C(Cc1ccccc1)NC(=O)[C@H]1CCC(=O)N1Cc1ccccc1 (some centres not stated) |
| > 1350 | 28 | 6 | 7 | 11 | – | – | – | – | NC(=O)C(=O)C(Cc1ccccc1)NC(=O)[C@H]1CCC(=O)N1c1ccccc1 (mixture of isomers) |
| 50 | 23 | 1 | 13 | 3 | – | – | – | – | C[C@H]1C[C@H](C(=O)NC(Cc2ccccc2)C(=O)C(N)=O)N(Cc2ccccc2)C1=O (mixture of isomers) |
| 59 | 17 | 102 | 65 | 524 | – | – | – | – | NC(=O)C(=O)C(Cc1ccccc1)NC(=O)[C@H]1CCC(=O)N1Cc1ccccc1C(F)(F)F (mixture of isomers) |
| 64 | 14 | 4 | 21 | 56 | – | – | – | – | NC(=O)C(=O)C(Cc1ccccc1)NC(=O)[C@H]1CCCC(=O)N1Cc1ccccc1 (mixture of isomers) |
| 528 | 5 | 17 | 6 | 2 | – | – | – | – | NC(=O)C(=O)C(Cc1ccccc1)NC(=O)[C@@H]1CCC(=O)N1Cc1ccccc1 (mixture of isomers) |
